Source: patent US20060270640A1, “Method of preventing, medicating, and/or treating hypocalcemia of domestic mammal” (Mercian Corporation, priority 2004, published 2006)
“And” between values parts separate entries of the source, which are not always exact repeats. Equal values may be shown once. Read-outs that look alike come from different tables or passages of the source.

Key:
[1] = oral administration, high dose; cited from earlier work
[2] = in vivo; cited from earlier work
[3] = Dose-response test of 1,25-(OH)2D3: Ca/Cre, iP/Cre, Mg/Cre in urine (Example 3); format: in vivo, cow; conditions: for iP/Cre in urine: vs immediately before administration
Procedure: (§1) Hereinafter, the present invention will further be described with reference to Examples and Comparative Example. However, the present invention is not intended to be limited to them by any means. In the examples described below, a 1,25-(OH)2D3 concentration in plasma was determined using a radioimmunoassay kit (1,25-(OH)2D RIA kit, Immunodiagnostic Systems Limited, UK). The Ca concentrations, inorganic phosphorus (iP) concentrations, and magnesium (Mg) concentrations in plasma and urine were determined by orthocresolphthalein complexone (O-CPC), molybdenum (Mo), and xylidyl blue methods, respectively. A creatinine concentration in urine was determined by a Jaffe method. Calcium (Ca), inorganic phosphorus (iP), and magnesium (Mg) concentrations in urine were indicated in the ratios relative to creatinine (Cre) (Ca/Cre, iP/Cre, and Mg/Cre, respectively).
(§2) The dose-response test of 1,25-(OH)2D3 by an intravaginal administration route was performed with five 3 to 9-year-old ovariectomized Holstein cows having body weights of 616 to 804 kg as test animals.
(§3) The cows were hitched to a partition after and provided with 5.3 kg of timothy hay, 0.18 kg of alfalfa hay, 0.71 kg of beet pulp pellet, and 1.7 kg of commercially-available grain mix on a daily basis. The cows were measured on a DM basis and freely provided with water. A daily mineral intake was set to 48.4 g for calcium, 20.2 g of inorganic phosphorus, and 12.7 g for magnesium, which sufficiently exceeded the NRC recommendation.
(§4) To the five cows, 1,25-(OH)2D3 was respectively administered at 0.125, 0.25, 0.5, and 1.0 μg/kg (by body weight) as an intravaginal dose level and 1.0 μg/kg (by body weight) as an intravenous injection dose level at an interval of 2 weeks or more according to a 5×5 Latin square design.
(§5) The 1,25-(OH)2D3 (manufactured by Mercian Corporation) used was in the form of crystalline powder, which was dissolved in 99% ethanol at 200 μg/mL and cryopreserved at −20° C. until use.
(§6) A drug composed of 5 mL of 20% ethanol solution containing 1,25-(OH)2D3 at 0.125, 0.25, 0.5, or 1.0 μg/kg (by body weight) was administered to a vaginal lumen using a Split Universal Sheath (IMV Int. CO., France) by a rectovaginal cavity method. The vulva was then bonded with an adhesive in order to prevent the 1,25-(OH)2D3 solution from being unintentionally excreted from the vaginal lumen. Intravenous administration was performed using a cannula (14-ga cannula for animals, manufactured by Nipro Medical Industries Ltd.) mounted in advance for the collection of a blood sample.
Urine were collected by urethral catheterization simultaneously with the collection of blood samples from the cows that underwent the intravaginal administration of 1,25-(OH)2D3 at 0.125 and 1.0 μg/kg (by body weight) and the intravenous injection of 1,25-(OH)2D3at 1.0 μg/kg (by body weight), to determine creatinine, calcium, inorganic phosphorus, and magnesium concentrations in the urine. Plasma and urine samples were cryopreserved at −20° C. until analysis.

[4] = Dose-response test of 1,25-(OH)2D3, intravaginal vs intravenous: 1,25-(OH)2D3 in plasma and bioavailability (Example 3); format: in vivo, cow; conditions: for concentration at 0 h: read-out: 1,25-(OH)2D3 level in plasma
Procedure: as §1, §2, §3, §4, §5, §6
(§7) A heparinized blood sample was collected through the cannula immediately before the administration of 1,25-(OH)2D3 (0 hour) and at 2, 4, 6, 12, 24, 48, 72, 96, and 120 hours after administration.
(§8) Next, the blood was immediately centrifuged, and 1,25-(OH)2D3, calcium, inorganic phosphorus, and magnesium concentrations in plasma were determined.
It is noted that the bioavailability was determined by comparing an area under the plasma concentration-time curve (AUC) between the cow to which 1,25-(OH)2D3 was intravaginally administered at 1.0 μg/kg (by body weight) and the cow to which the same amount of 1,25-(OH)2D3 was intravenously administered, and a AUC ratio between intravaginal administration and intravenous administration was indicated by percentage.

[5] = Dose-response test of 1,25-(OH)2D3, intravaginal vs intravenous: calcium, inorganic phosphorus, magnesium in plasma (Example 3); format: in vivo, cow
Procedure: as §1, §2, §3, §4, §5, §6, §7, §8

[6] = intravaginal, four doses 0.125-1.0 μg/kg
[7] = 0 hour, intravaginal 0.125 μg/kg
[8] = 0 hour, intravaginal 0.25 μg/kg
[9] = 24 hours after intravaginal 0.125 μg/kg
[10] = 24 hours after intravaginal 1.0 μg/kg

C=C1/C(=C\C=C2/CCC[C@]3(C)[C@@H]([C@H](C)CCCC(C)(C)O)CC[C@@H]23)C[C@@H](O)C[C@@H]1O [1,25-(OH)2D3, 1,25-dihydroxyvitamin D3]
proportional rise in the AUC in serum with an increase in a dose [1]: not observed | bioavailability of 1,25-(OH)2D3 [2]: 62% and 67% | Ca/Cre, iP/Cre and Mg/Cre in urine ([3]; intravaginal 0.125 μg/kg): no influence | Ca/Cre in urine ([3]; via the vagina 1.0 μg/kg, at 24 hours after administration): significantly rose | Mg/Cre in urine ([3]; via the vagina 1.0 μg/kg, from 6 hours to 12 hours after administration): significantly high | iP/Cre in urine ([3]; via the vagina 1.0 μg/kg, from 48 hours to 120 hours): significantly high | Mg/Cre in urine ([3]; via the vein 1.0 μg/kg, at 6 hours after administration): significantly high | Ca/Cre in urine ([3]; via the vein 1.0 μg/kg, at 12 hours and 24 hours after administration): significantly rose | iP/Cre in urine ([3]; via the vein 1.0 μg/kg, from 72 hours to 120 hours): significantly high | 1,25-(OH)2D3 level in plasma, peak ([4]; 2 hours after intravaginal 0.125 μg/kg): 2219.3 ± 812.0 pg/mL | 1,25-(OH)2D3 level in plasma, peak ([4]; 2 hours after intravaginal 0.25 μg/kg): 3448.7 ± 737.9 pg/mL | 1,25-(OH)2D3 level in plasma, peak ([4]; 2 hours after intravaginal 0.5 μg/kg): 6388.5 ± 1127.4 pg/mL | 1,25-(OH)2D3 level in plasma, peak ([4]; 2 hours after intravaginal 1.0 μg/kg): 12315.7 ± 2288.3 pg/mL | bioavailability ([4]; female, Holstein, bovine, plasma, other: intravaginal, 1 μg/kg, intravaginal vs intravenous, ovariectomized cows, read-out: bioavailability, share of 1,25-(OH)2D3 administered to the vaginal lumen entering the circulatory system): ~93% | concentration at 0 h ([4]; female, Holstein, bovine, plasma, other: intravaginal, intravaginal 0.125 μg/kg, ovariectomized cows): 7.4 ± 5.3 pg/mL | concentration at 0 h ([4]; female, Holstein, bovine, plasma, other: intravaginal, intravaginal 0.25 μg/kg): 6.5 ± 1.3 pg/mL | concentration at 0 h ([4]; female, Holstein, bovine, plasma, other: intravaginal, intravaginal 0.5 μg/kg): 8.7 ± 5.6 pg/mL | concentration at 0 h ([4]; female, Holstein, bovine, plasma, other: intravaginal, intravaginal 1.0 μg/kg): 6.6 ± 1.6 pg/mL | individual bioavailability (AUC ratio intravaginal/intravenous) ([4]; intravaginal 1.0 μg/kg vs intravenous 1.0 μg/kg, one value per each of the five cows): 71.1% and 124.2% and 113.3% and 90.0% and 66.5% | time of peak 1,25-(OH)2D3 level in plasma after administration ([4]; intravaginal 0.125, 0.25, 0.5 and 1.0 μg/kg): 2 h | dose dependence of absorption from the vaginal wall [4, 6]: absorbed from the vaginal wall proportionately with a dose | calcium concentration in plasma [5, 7]: 8.9 ± 0.5 mg/dL | inorganic phosphorus concentration in plasma [5, 7]: 5.3 ± 1.0 mg/dL | magnesium concentration in plasma [5, 7]: 2.2 ± 0.2 mg/dL | calcium concentration in plasma [5, 8]: 8.9 ± 0.4 mg/dL | inorganic phosphorus level in plasma [5, 8]: 4.7 ± 0.6 mg/dL | magnesium concentration in plasma [5, 8]: 2.0 ± 0.2 mg/dL | calcium concentration in plasma ([5]; 0 hour, intravaginal 0.5 μg/kg): 8.9 ± 0.2 mg/dL | inorganic phosphorus concentration in plasma ([5]; 0 hour, intravaginal 0.5 μg/kg): 5.3 ± 0.6 mg/dL | magnesium concentration in plasma ([5]; 0 hour, intravaginal 0.5 μg/kg): 2.2 ± 0.2 mg/dL | calcium concentration in plasma ([5]; 0 hour, intravaginal 1.0 μg/kg): 8.8 ± 0.7 mg/dL | inorganic phosphorus concentration in plasma ([5]; 0 hour, intravaginal 1.0 μg/kg): 5.4 ± 1.3 mg/dL | magnesium concentration in plasma ([5]; 0 hour, intravaginal 1.0 μg/kg): 2.1 ± 0.1 mg/dL | calcium concentration in plasma ([5]; 0 hour, intravenous 1.0 μg/kg): 8.8 ± 0.5 mg/dL | inorganic phosphorus concentration in plasma ([5]; 0 hour, intravenous 1.0 μg/kg): 5.2 ± 1.3 mg/dL | magnesium concentration in plasma ([5]; 0 hour, intravenous 1.0 μg/kg): 2.2 ± 0.2 mg/dL | inorganic phosphorus concentration in plasma ([5]; 12 hour after intravenous 1.0 μg/kg): 7.2 ± 0.8 mg/dL | inorganic phosphorus level in plasma ([5]; 12 hours (start of 12 to 120 hours) after intravaginal 0.25 μg/kg): 6.7 ± 0.9 mg/dL | magnesium concentration in plasma ([5]; 12 hours after intravaginal 0.5 μg/kg): 1.9 ± 0.2 mg/dL | inorganic phosphorus concentration in plasma [5, 9]: 7.7 ± 0.8 mg/dL | magnesium concentration in plasma [5, 9]: 1.9 ± 0.1 mg/dL | magnesium concentration in plasma ([5]; 24 hours after intravaginal 0.25 μg/kg): 1.8 ± 0.1 mg/dL | inorganic phosphorus concentration in plasma ([5]; 24 hours after intravaginal 0.5 μg/kg): 7.9 ± 0.9 mg/dL | inorganic phosphorus concentration in plasma [5, 10]: 8.0 ± 1.2 mg/dL | magnesium concentration in plasma [5, 10]: 1.8 ± 0.2 mg/dL | magnesium concentration in plasma ([5]; 24 hours after intravenous 1.0 μg/kg): 1.9 ± 0.3 mg/dL | inorganic phosphorus concentration in plasma, peak ([5]; 24 hours after intravenous 1.0 μg/kg (start of peak period)): 9.1 ± 1.6 mg/dL | calcium concentration in plasma, peak ([5]; 48 hours after intravaginal 0.125 μg/kg, significantly high 12 to 120 hours): 11.1 ± 0.9 mg/dL | calcium concentration in plasma, peak ([5]; 48 hours after intravaginal 0.25 μg/kg, significantly high 12 to 120 hours): 11.2 ± 0.7 mg/dL | calcium concentration in plasma, peak ([5]; 48 hours after intravaginal 0.5 μg/kg, significantly high 6 to 120 hours): 11.5 ± 0.6 mg/dL | calcium concentration in plasma, peak ([5]; 48 hours after intravaginal 1.0 μg/kg, significantly high 6 to 120 hours): 12.0 ± 0.6 mg/dL | inorganic phosphorus level in plasma ([5]; 120 hours (end of 12 to 120 hours) after intravaginal 0.25 μg/kg): 8.6 ± 1.2 mg/dL | magnesium concentration in plasma ([5]; 120 hours after intravaginal 0.125 μg/kg): 1.8 ± 0.3 mg/dL | magnesium concentration in plasma ([5]; 120 hours after intravaginal 0.25 μg/kg): 1.7 ± 0.2 mg/dL | magnesium concentration in plasma ([5]; 120 hours after intravaginal 0.5 μg/kg): 1.7 ± 0.2 mg/dL | magnesium concentration in plasma ([5]; 120 hours after intravaginal 1.0 μg/kg): 1.7 ± 0.4 mg/dL | magnesium concentration in plasma ([5]; 120 hours after intravenous 1.0 μg/kg): 1.7 ± 0.2 mg/dL | inorganic phosphorus concentration in plasma, peak ([5]; end of peak period 'from 24 hours to 12 hours' after intravenous 1.0 μg/kg): 9.0 ± 1.2 mg/dL | dose-relationship of changes in calcium, inorganic phosphorus and magnesium concentrations in plasma [5, 6]: no dose-relationship | calcium concentration in plasma, peak ([5]; intravenous 1.0 μg/kg): 11.5 ± 1.2 mg/dL
